Data from article PMC6458995, “MAP4K4 Inhibition Promotes Survival of Human Stem Cell-Derived Cardiomyocytes and Reduces Infarct Size In Vivo” (Cell Stem Cell, 2019).

Key:
Assay in all cases: Dundee kinase panel
Assay type in all cases: biochemical
Details in all cases: for remaining activity at 1 µM: read-out: residual activity
MNK1 = molecular target: T1, MNK1 (Homo sapiens, UniProt Q9BUB5)
T1 construct: lines 1-140) and Reaction Biology
Procedure: (§1) Compounds were screened at 1 μM. For key hits, pIC50 values were then determined by HTRF as above. […] Stability in mouse and human liver microsomes was determined by Cyprotex.

MEKK1 = molecular target: T2, MEKK1 (Homo sapiens, UniProt Q13233)
T2 construct: lines 1-140) and Reaction Biology
Procedure: as §1

JNK3 = molecular target: T3, JNK3 (Homo sapiens, UniProt P53779)
T3 construct: lines 1-140) and Reaction Biology
Procedure: as §1

PKD1 = molecular target: T4, PKD1 (Homo sapiens, UniProt Q15139)
T4 construct: lines 1-140) and Reaction Biology
T4 sequence (Q15139 1-912): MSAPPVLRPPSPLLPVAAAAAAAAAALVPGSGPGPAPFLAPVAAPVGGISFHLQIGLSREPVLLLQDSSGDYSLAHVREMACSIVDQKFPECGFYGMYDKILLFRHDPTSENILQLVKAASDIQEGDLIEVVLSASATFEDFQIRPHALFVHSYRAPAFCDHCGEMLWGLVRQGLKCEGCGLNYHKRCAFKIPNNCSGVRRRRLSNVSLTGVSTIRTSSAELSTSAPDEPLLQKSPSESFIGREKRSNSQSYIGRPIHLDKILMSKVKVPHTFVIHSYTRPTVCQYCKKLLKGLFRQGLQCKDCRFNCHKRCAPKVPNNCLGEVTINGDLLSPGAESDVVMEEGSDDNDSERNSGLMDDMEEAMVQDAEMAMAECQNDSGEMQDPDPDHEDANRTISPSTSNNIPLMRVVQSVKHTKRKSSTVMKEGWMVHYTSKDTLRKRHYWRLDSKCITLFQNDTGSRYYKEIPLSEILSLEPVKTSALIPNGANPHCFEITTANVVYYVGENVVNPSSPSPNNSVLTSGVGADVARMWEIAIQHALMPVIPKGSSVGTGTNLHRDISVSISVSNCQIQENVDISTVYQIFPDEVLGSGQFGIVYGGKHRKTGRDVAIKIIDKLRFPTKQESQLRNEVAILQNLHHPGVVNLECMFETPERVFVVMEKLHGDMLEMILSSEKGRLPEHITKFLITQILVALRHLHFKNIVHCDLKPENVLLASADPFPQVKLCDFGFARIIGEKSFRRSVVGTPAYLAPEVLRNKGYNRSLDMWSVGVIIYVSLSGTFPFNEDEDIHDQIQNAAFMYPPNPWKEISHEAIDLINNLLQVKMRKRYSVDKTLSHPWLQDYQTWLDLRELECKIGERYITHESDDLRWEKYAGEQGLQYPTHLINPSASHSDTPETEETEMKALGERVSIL
Procedure: as §1

IGF-1R = molecular target: T5, IGF-1R (Homo sapiens, UniProt P08069)
T5 construct: lines 1-140) and Reaction Biology
Procedure: as §1

IRAK4 = molecular target: T6, IRAK4 (Homo sapiens, UniProt Q9NWZ3)
T6 construct: lines 1-140) and Reaction Biology
T6 sequence (Q9NWZ3 1-460): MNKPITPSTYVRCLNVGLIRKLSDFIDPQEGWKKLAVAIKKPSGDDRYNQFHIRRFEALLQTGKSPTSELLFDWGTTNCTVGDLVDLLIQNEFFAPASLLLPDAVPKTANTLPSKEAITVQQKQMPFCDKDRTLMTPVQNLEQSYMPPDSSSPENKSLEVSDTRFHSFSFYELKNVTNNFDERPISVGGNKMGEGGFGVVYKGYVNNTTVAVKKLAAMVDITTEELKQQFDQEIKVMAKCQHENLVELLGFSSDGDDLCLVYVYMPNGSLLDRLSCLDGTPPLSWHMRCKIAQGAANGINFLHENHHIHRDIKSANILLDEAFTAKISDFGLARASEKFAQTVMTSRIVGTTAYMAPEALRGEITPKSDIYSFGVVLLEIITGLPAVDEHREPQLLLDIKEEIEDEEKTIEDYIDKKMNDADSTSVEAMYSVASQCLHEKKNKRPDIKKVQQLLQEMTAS
Procedure: as §1

PKA = molecular target: T7, PKA (Homo sapiens, UniProt P17612)
T7 construct: lines 1-140) and Reaction Biology
Procedure: as §1

JAK2 = molecular target: T8, JAK2 (Homo sapiens, UniProt O60674)
T8 construct: lines 1-140) and Reaction Biology
Procedure: as §1

CK1δ = molecular target: T9, CK1δ (Homo sapiens, UniProt P48730)
T9 construct: lines 1-140) and Reaction Biology
Procedure: as §1

SIK3 = molecular target: T10, SIK3 (Homo sapiens, UniProt Q9Y2K2)
T10 construct: lines 1-140) and Reaction Biology
Procedure: as §1

MAPKAP-K3 = molecular target: T11, MAPKAP-K3 (Homo sapiens, UniProt Q16644)
T11 construct: lines 1-140) and Reaction Biology
Procedure: as §1

PAK2 = molecular target: T12, PAK2 (Homo sapiens, UniProt Q13177)
T12 construct: lines 1-140) and Reaction Biology
Procedure: as §1

TIE2 = molecular target: T13, TIE2 (Homo sapiens, UniProt Q02763)
T13 construct: lines 1-140) and Reaction Biology
Procedure: as §1

MNK2 = molecular target: T14, MNK2 (Homo sapiens, UniProt Q9HBH9)
T14 construct: lines 1-140) and Reaction Biology
Procedure: as §1

PKCγ = molecular target: T15, PKCγ (Homo sapiens, UniProt P05129)
T15 construct: lines 1-140) and Reaction Biology
Procedure: as §1

HIPK3 = molecular target: T16, HIPK3 (Homo sapiens, UniProt Q9H422)
T16 construct: lines 1-140) and Reaction Biology
Procedure: as §1

T9 sequence (P48730 whole entry): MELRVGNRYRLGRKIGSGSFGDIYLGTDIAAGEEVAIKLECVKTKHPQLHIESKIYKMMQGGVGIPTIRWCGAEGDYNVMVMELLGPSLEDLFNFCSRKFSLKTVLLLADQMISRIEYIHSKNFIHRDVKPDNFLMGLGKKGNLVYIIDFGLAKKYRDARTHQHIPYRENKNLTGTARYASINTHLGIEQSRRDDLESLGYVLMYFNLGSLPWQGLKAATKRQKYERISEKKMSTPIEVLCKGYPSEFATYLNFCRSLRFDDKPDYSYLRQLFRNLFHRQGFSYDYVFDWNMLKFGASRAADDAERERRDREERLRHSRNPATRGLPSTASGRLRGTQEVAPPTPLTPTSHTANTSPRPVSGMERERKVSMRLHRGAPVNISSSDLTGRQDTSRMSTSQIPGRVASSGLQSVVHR
T2 sequence (Q13233 whole entry): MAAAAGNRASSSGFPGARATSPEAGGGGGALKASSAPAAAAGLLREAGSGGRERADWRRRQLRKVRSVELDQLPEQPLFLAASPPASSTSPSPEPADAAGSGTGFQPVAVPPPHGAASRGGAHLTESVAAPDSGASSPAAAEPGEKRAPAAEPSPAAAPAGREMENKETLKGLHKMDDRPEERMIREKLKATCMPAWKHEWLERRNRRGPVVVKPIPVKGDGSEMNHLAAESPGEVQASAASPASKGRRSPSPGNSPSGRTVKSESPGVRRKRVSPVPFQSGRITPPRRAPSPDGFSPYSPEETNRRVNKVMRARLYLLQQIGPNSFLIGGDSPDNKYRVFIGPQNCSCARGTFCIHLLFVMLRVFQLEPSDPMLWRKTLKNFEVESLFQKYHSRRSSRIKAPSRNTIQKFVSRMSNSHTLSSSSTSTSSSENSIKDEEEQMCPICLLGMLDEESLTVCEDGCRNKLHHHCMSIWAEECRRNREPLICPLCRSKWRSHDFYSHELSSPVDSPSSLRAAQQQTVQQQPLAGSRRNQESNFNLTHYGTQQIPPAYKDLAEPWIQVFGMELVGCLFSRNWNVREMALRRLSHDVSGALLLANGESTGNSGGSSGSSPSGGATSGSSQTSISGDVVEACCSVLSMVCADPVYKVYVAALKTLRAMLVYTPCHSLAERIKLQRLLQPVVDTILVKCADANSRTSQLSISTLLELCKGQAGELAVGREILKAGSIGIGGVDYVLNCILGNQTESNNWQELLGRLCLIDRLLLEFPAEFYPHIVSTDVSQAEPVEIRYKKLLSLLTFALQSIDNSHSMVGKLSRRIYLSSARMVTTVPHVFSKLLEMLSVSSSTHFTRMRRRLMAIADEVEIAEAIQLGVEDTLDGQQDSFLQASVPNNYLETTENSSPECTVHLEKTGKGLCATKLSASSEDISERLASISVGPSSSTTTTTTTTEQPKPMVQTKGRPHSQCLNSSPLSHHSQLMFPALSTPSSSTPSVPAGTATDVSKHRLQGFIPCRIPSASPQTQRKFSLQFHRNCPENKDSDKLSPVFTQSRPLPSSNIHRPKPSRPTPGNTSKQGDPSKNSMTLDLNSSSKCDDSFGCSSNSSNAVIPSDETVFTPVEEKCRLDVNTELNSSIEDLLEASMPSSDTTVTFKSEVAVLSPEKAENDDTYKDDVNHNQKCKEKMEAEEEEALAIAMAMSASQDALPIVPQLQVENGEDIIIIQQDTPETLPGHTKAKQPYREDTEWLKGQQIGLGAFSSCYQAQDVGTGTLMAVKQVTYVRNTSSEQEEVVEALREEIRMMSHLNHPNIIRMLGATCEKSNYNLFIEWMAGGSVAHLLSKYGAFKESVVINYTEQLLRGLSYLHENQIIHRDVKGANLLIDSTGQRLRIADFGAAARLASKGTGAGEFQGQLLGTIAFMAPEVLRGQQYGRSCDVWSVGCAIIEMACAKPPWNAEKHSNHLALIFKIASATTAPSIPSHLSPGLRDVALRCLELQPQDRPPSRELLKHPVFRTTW
T11 sequence (Q16644 whole entry): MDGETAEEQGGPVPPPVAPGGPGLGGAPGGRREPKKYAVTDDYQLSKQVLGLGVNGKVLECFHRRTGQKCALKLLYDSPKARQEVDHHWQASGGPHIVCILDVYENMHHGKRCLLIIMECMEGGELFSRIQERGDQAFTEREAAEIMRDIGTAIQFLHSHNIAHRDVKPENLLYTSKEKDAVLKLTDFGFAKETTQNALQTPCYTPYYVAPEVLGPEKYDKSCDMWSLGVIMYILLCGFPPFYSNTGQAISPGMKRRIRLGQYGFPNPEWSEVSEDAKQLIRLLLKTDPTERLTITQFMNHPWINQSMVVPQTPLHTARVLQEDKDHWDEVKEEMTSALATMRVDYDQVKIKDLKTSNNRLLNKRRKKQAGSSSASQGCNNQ
T10 sequence (Q9Y2K2 whole entry): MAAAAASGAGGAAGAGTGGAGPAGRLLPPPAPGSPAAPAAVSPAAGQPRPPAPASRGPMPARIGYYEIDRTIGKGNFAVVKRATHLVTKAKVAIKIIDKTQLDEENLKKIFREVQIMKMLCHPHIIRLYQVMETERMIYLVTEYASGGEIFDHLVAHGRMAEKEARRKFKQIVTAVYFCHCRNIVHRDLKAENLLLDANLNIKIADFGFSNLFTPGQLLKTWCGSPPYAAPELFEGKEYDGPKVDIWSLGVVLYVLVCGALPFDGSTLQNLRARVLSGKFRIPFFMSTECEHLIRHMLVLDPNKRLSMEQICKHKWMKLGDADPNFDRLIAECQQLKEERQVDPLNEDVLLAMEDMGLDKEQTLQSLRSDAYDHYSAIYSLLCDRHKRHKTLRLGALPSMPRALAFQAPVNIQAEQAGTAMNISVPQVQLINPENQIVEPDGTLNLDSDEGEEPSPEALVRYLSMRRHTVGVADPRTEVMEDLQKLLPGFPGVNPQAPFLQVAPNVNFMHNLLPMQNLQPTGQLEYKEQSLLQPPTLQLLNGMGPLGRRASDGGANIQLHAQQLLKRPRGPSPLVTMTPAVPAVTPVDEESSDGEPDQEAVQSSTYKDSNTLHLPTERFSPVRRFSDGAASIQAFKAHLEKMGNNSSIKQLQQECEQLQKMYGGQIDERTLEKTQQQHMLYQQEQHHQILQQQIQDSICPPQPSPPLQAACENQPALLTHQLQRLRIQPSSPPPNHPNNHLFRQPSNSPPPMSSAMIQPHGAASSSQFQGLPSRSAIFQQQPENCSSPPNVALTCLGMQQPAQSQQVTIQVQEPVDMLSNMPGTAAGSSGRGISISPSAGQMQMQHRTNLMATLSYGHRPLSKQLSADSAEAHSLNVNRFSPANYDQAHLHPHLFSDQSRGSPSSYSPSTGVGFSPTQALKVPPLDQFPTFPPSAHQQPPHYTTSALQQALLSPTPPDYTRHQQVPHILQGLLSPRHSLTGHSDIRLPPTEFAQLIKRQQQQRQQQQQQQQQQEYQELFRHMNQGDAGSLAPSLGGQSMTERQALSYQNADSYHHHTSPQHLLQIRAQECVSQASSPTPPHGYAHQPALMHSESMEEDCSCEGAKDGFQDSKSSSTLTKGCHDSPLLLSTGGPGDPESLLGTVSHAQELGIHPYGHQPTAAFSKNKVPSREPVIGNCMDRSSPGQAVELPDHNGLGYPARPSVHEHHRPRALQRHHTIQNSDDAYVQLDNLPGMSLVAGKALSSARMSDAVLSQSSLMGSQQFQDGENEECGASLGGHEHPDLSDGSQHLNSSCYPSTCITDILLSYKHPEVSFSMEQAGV
T1 sequence (Q9BUB5 whole entry): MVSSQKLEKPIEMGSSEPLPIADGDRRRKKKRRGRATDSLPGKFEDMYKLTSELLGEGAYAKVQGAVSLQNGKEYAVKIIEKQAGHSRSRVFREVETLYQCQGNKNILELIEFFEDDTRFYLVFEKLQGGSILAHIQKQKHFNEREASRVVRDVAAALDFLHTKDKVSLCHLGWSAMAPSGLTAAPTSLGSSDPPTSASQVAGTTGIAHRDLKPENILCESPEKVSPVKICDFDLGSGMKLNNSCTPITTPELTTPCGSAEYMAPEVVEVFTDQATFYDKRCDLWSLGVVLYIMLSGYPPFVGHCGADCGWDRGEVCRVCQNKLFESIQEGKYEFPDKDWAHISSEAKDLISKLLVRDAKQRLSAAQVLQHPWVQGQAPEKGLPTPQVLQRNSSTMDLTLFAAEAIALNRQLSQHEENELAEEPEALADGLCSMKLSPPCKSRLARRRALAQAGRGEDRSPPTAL
T14 sequence (Q9HBH9 whole entry): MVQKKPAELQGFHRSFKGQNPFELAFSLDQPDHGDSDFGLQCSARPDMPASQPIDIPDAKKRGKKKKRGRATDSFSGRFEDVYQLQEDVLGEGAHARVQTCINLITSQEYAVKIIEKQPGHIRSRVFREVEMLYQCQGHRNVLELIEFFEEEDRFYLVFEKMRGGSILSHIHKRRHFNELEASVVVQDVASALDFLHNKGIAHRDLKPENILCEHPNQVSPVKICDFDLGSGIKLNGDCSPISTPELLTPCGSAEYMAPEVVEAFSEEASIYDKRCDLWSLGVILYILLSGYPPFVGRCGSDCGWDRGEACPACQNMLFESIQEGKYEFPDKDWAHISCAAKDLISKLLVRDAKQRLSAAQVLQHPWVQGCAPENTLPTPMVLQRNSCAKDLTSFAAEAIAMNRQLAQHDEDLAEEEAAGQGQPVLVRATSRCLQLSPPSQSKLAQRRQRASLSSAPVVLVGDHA
T3 sequence (P53779 whole entry): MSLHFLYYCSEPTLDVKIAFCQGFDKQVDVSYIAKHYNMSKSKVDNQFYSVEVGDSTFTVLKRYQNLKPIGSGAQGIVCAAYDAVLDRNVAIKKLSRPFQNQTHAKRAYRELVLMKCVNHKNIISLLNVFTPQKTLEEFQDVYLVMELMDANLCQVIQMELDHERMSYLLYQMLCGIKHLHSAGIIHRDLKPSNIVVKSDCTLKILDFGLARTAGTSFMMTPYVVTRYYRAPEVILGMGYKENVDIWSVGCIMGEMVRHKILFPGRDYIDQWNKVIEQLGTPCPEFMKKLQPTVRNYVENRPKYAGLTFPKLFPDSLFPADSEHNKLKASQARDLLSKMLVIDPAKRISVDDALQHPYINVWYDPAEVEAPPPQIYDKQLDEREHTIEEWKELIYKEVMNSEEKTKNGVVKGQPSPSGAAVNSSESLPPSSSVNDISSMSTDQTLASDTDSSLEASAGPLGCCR

SMILES | remaining activity at 1 µM (MNK1) | remaining activity at 1 µM (MEKK1) | remaining activity at 1 µM (JNK3) | remaining activity at 1 µM (PKD1) | remaining activity at 1 µM (IGF-1R) | remaining activity at 1 µM (IRAK4) | remaining activity at 1 µM (PKA) | remaining activity at 1 µM (JAK2) | remaining activity at 1 µM (CK1δ) | remaining activity at 1 µM (SIK3) | remaining activity at 1 µM (MAPKAP-K3) | remaining activity at 1 µM (PAK2) | remaining activity at 1 µM (TIE2) | remaining activity at 1 µM (MNK2) | remaining activity at 1 µM (PKCγ) | remaining activity at 1 µM (HIPK3) | other results
O=C1Nc2ccc(I)cc2/C1=C/c1cc(Br)c(O)c(Br)c1 [GW5074] | 82% | 5% | 65% | 66% | 88% | 78% | 83% | 82% | 88% | 65% | 71% | 29% | 98% | 95% | 100% | 25% | 
Oc1ncnc2c1c(-c1ccccc1)cn2-c1ccccc1 [F1386-0303, 5,7-diphenyl-7H-pyrrolo[2,3-d]pyrimidin-4-ol] | 102% | 97% | 92% | 103% | 108% | 103% | 103% | 94% | 107% | 110% | 104% | 79% | 114% | 109% | 105% | 93% | 
O=C1Cc2c([nH]c3ccc(Br)cc23)-c2ccccc2N1 [Kenpaullone] | 91% | 5% | 87% | 100% | 74% | 65% | 105% | 105% | 104% | 12% | 83% | 96% | 98% | 125% | 105% | 87% | 
COCCOc1ccc(-c2cn(-c3ccccc3)c3nc[nH]c(=O)c23)cc1 [DMX-5804, 5-[4-(2-methoxy-ethoxy)-phenyl]-7-phenyl-3,7-dihydro-pyrrolo[2,3-d]pyrimidin-4-one] | 90% | 111% | 127% | 102% | 112% | 97% | 109% | 70% | 94% | 90% | 104% | 93% | 101% | 111% | 94% | 103% | 
Nc1ncc(C(=O)NC2CN(C(=O)C3CC3)C2)c2ccc(-c3cccc(F)c3)nc12 [GNE-495] |  |  |  |  |  |  |  |  |  |  |  |  |  |  |  |  | residual activity (MNK1; 1 μM): 53%; residual activity (MEKK1; 1 μM): 87%; residual activity (JNK3; 1 μM): 73%; residual activity (PKD1; 1 μM): 68%; residual activity (IGF-1R; 1 μM): 85%; residual activity (IRAK4; 1 μM): 75%; residual activity (PKA; 1 μM): 95%; residual activity (JAK2; 1 μM): 76%; residual activity (CK1δ; 1 μM): 65%; residual activity (SIK3; 1 μM): 87%; residual activity (MAPKAP-K3; 1 μM): 99%; residual activity (PAK2; 1 μM): 94%; residual activity (TIE2; 1 μM): 86%; residual activity (MNK2; 1 μM): 64%; residual activity (PKCγ; 1 μM): 74%; residual activity (HIPK3; 1 μM): 81%
